# Source: US20040214850A1, “1-glyoxylamide indolizines for treating cancer” (Synta Pharmaceuticals Corp., priority 2001, published 2004)
# Where two headings read alike, the source gives them in different places.
# Columns and labels:
# [1] = system: DU-145 (human prostate cancer); assay: In vitro anti-cancer activity, MTS growth inhibition assay, DU-145; assay type: cell-based
# Method: (§1) The in vitro activity of the compounds was determined in the following seven human cancer cell lines. MDA435 (human breast cancer), MIP101 (human colon cancer), HL-60 (human myeloid leukemia), U937 (human leukemia), p388 (murine leukemia), DU-145 (human prostate cancer), MES-SA (human uterine sarcoma) were obtained from ATCC (American Type of Culture Collection).
# (§2) The cell lines were maintained in RPMI1640 (GIBCO) supplemented with 10% FCS, 100 units/ml penicillin, 100 ug/ml streptomycin, and 2 mM L-glutamine. The cells were split every third day and diluted to a concentration of 2×10^5 cells/ml one day before experiment. All experiments were performed on exponentially growing cell culture. Cell densities were 2.5×10^4 cells/ml in all experiment.
# (§3) A stock solution of Compound (1) and a stock solution of Taxol (positive control) were prepared by dissolving the compound at a concentration of 1 mM in 100% DMSO. Final concentrations were obtained by diluting the stock solution directly into the tissue culture medium. Cells were incubated with varying concentrations of the compounds for 72 hours and the IC50 was determined by MTS (i.e. 3-(4,5,-dimethylthiazol-2-yl)-2,5-diphenyl tetrazolium bromide) assay. IC50 stands for the concentration of compound required to inhibit 50% tumor cell growth.
# (§4) The protocol described in Examples 9-10 was used to assay inhibition by Compounds (20) (21) (24) and (28) on the growth of cancer cell lines MES-SA (human uterine sarcoma cell line) and DU-145 (human prostate cancer).
# [2] = system: MES-SA (human uterine sarcoma); assay: In vitro anti-cancer activity, MTS growth inhibition assay, MES-SA; assay type: cell-based
# Method: as §1, §2, §3, §4
# MES-SA and DU-145 = assay: in vitro activity over MES-SA and DU-145; assay type: cell-based; settings: Homo sapiens; range over both cell lines; read-out: IC50 against MES-SA and DU-145
# Method: as §2, §3, §4
# [3] = system: MDA435 (human breast cancer); assay: In vitro anti-cancer activity, MTS growth inhibition assay, MDA-435; assay type: cell-based; settings: MDA-435 cells, 72 hours
# Method: as §1, §2, §3
# [4] = system: MIP101 (human colon cancer); assay: In vitro anti-cancer activity, MTS growth inhibition assay, MIP-101; assay type: cell-based; settings: MIP-101 cells, 72 hours
# Method: as §1, §2, §3
# [5] = system: HL-60 (human myeloid leukemia); assay: In vitro anti-cancer activity, MTS growth inhibition assay, HL-60; assay type: cell-based; settings: HL-60 cells, 72 hours
# Method: as §1, §2, §3
# U937 (human leukemia) = assay: In vitro anti-cancer activity, MTS growth inhibition assay, U-937; assay type: cell-based; settings: U-937 cells, 72 hours
# Method: as §1, §2, §3
# p388 (murine leukemia) = assay: In vitro anti-cancer activity, MTS growth inhibition assay, p388; assay type: cell-based; settings: Mus musculus, p388 cells, 72 hours
# Method: as §1, §2, §3
# [6] = system: HL-60/TX1000 (multi-drug resistant human myeloid leukemia cell line); assay: In vitro activity against multi-drug resistant cell line HL-60/TX1000; assay type: cell-based; settings: HL60/TX1000, HL-60/TX1000 MDR cells (Table 2)
# Method: as §2, §3
# (§5) In vitro activity was determined in two MDR (Multi Drug Resistant) human cancer cell lines. HL-60/TX1000 was isolated in vitro by subculturing HL-60 in progressively higher concentration of Taxol. HL-60/TX1000 cells over-express mdr-1 mRNA and p-glycoprotein, as determined by western blot and immunofluorescence labeling with antiPGP antibodies. The cell is cross-resistant to Taxol, Vincristine, Adriamycin, Etoposide and Doxorubicin. MES-SA/Dx5 was established in the presence of increasing concentrations of Doxorubicin. […] MES-SA/Dx5 was purchased from ATCC.
# (§6) The procedure for culturing the cells and assaying cancer cell growth inhibition were as described in Example 3.
# [7] = system: MES-SA/DX5 (multi-drug resistant human uterine sarcoma cell line); assay: In vitro activity against multi-drug resistant cell line MES-SA/DX5; assay type: cell-based
# Method: as §2, §3, §5, §6
# The protocol described in Examples 9-10 was used to assay inhibition by Compounds (2)-(8) on the growth of the multidrug resistant cancer cell line MES-SA/DX5, which is a MDR uterine sarcoma cell line.
# [8] = system: MDR cell lines (MES-SA/DX5, HL-60/TX1000); assay: in vitro activity over the two MDR cell lines; assay type: cell-based, human; settings: Homo sapiens; range over MES-SA/DX5 and HL-60/TX1000; read-out: IC50 against the MDR cell lines
# Method: as §2, §3, §5, §6
# [9] = DU-145 cells (Table 4, Example 13), read-out: IC50 DU-145
# [10] = MES-SA cells (Table 4, Example 13), read-out: IC50 MES-SA
# [11] = MES-SA/DX5 MDR cells (Table 3, Example 12)
SMILES,"IC50 [1, 9]","IC50 [2, 10]",IC50 (MES-SA and DU-145),"IC50 [7, 11]",further results
"Cc1cc(NC(=O)C(=O)c2cc(Oc3ccc(C#N)cc3)n3ccccc23)sn1 [Compound (20), 2-[3-(4-Cyano-phenoxy)-indolizin-1-yl]-N-(3-methyl-isothiazol-5-yl)-2-oxo-acetamide]",50 nM,50 nM,50 to 100 nM,,
"CC(=O)O[C@H]1C(=O)[C@@]2(C)[C@H]([C@H](OC(=O)c3ccccc3)[C@]3(O)C[C@H](OC(=O)[C@H](O)[C@@H](NC(=O)c4ccccc4)c4ccccc4)C(C)=C1C3(C)C)[C@]1(OC(C)=O)CO[C@@H]1C[C@@H]2O [Taxol, reference compound]",,,,5000 nM,"IC50 [3]: 5 nM; IC50 [4]: 500 nM; IC50 [5]: 5 nM; IC50 (U937 (human leukemia)): 5 nM; IC50 (p388 (murine leukemia)): 10 nM; IC50 ([1]; DU-145 cells, 72 hours, MTS assay (Table 1), read-out: IC50): 5 nM; IC50 ([2]; MES-SA cells, 72 hours, MTS assay (Table 1), read-out: IC50): 5 nM; IC50 [6]: 5 µM; IC50 [8]: 1000 to 5000 nM"
"Cc1cc(NC(=O)C(=O)c2cc(N(C)c3ccc(C#N)cc3)n3ccccc23)sn1 [Compound (21), 2-{3-[(4-Cyano-phenyl)-methyl-amino]-indolizin-1-yl}-N-(3-methyl-isothiazol-5-yl)-2-oxo-acetamide]",50 nM,50 nM,50 to 100 nM,,
N#Cc1ccc(Cc2cc(C(=O)C(=O)Nc3ccc4ncccc4c3)c3ccccn23)cc1 [Compound (5)],,,,100 nM,
CC[C@]1(O)C[C@H]2CN(CCc3c([nH]c4ccccc34)[C@@](C(=O)OC)(c3cc4c(cc3OC)N(C=O)[C@H]3[C@@](O)(C(=O)OC)[C@H](OC(C)=O)[C@]5(CC)C=CCN6CC[C@]43[C@@H]65)C2)C1 [Vincristine],,,,,"IC50 [6]: 5 µM; IC50 ([7]; MES-SA/Dx5, MES-SA/DX-5 MDR cells (Table 2)): 1000 nM; IC50 [8]: 1000 to 5000 nM"
O=C(Nc1ccc2ncccc2c1)C(=O)c1cc(Cc2ccc(Cl)cc2)n2ccccc12 [Compound (3)],,,,100 nM,

# Now from value to molecule, other results behind:
"IC50 [1, 9]","IC50 [2, 10]",IC50 (MES-SA and DU-145),"IC50 [7, 11]",SMILES,further results
100 nM,100 nM,50 to 100 nM,,"Cc1cc(NC(=O)C(=O)c2cc(Cc3ccc(C#N)s3)n3ccccc23)sn1 [Compound (28), 2-[3-(5-cyano-thiophen-2-ylmethyl)-indolizin-1-yl]-N-(3-methyl-isothiazol-5-yl)-2-oxo-acetamide]",
50 nM,50 nM,50 to 100 nM,,"Cc1ccc2c(C(=O)C(=O)Nc3cc(C)ns3)cc(Cc3ccc(C#N)cc3)n2c1 [Compound (24), 2-[3-(4-Cyano-benzyl)-6-methyl-indolizin-1-yl]-N-(3-methyl-isothiazol-5-yl)-2-oxo-acetamide]",
,,,50 nM,Cc1cc(NC(=O)C(=O)c2cc(Cc3ccc(F)cc3)n3ccccc23)sn1 [Compound (7)],
,,,100 nM,COc1ccc(Cc2cc(C(=O)C(=O)Nc3cc(C)ns3)c3ccccn23)cc1 [Compound (8)],
,,,60 nM,Cc1cc(NC(=O)C(=O)c2cc(Cc3ccc(Cl)cc3)n3ccccc23)sn1 [Compound (2)],
,,,50 nM,Cc1cc(NC(=O)C(=O)c2cc(Cc3ccc(C#N)cc3)n3cc(F)ccc23)sn1 [Compound (4)],
,,,50 nM,Cc1cc(NC(=O)C(=O)c2cc(Cc3ccccc3)n3ccccc23)sn1 [Compound (6)],
